Experimental data as given in US9738634B2, “Heterocyclic amide compound and herbicide” (SYNGENTA PARTICIPATIONS AG, priority 2013, dated 2017).

How the values were obtained:
Format in all cases: in vivo
[1] = system: barnyard grass; assay: Test Example 1: weedkilling efficacy, preemergent weed treatment in the submerged state; A: barnyard grass; conditions: treatment dosage 252 g/ha
Outline: (§1)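 Submerged pre-emergence treatment, water-surface application of compound emulsion at g/ha dosages; 4 cm flooded alluvial soil, weeds sown and 2.5-leaf rice transplanted same day. Rated after 3 weeks, greenhouse.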

[2] = system: bulrush; assay: Test Example 1: weedkilling efficacy, preemergent weed treatment in the submerged state; B: bulrush; conditions: treatment dosage 252 g/ha
Outline: as §1

[3] = system: oval-leafed pondweed; assay: Test Example 1: weedkilling efficacy, preemergent weed treatment in the submerged state; C: oval-leafed pondweed; conditions: treatment dosage 252 g/ha
Outline: as §1

[4] = system: transplanted rice; assay: Test Example 1: preemergent weed treatment in the submerged state, effect on crop; a: transplanted rice; conditions: treatment dosage 252 g/ha
Outline: as §1

[5] = system: barnyard grass; assay: Test Example 2: weedkilling efficacy, growth period weed treatment in the submerged state; A: barnyard grass; conditions: treatment dosage 252 g/ha
Outline: (§2)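 Seedlings at 1-2 leaves in 4 cm-deep submerged alluvial soil received emulsion formulations on the water surface, dosed per hectare; effects were judged 3 weeks on.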

[6] = system: bulrush; assay: Test Example 2: weedkilling efficacy, growth period weed treatment in the submerged state; B: bulrush; conditions: treatment dosage 252 g/ha
Outline: as §2

[7] = system: oval-leafed pondweed; assay: Test Example 2: weedkilling efficacy, growth period weed treatment in the submerged state; C: oval-leafed pondweed; conditions: treatment dosage 252 g/ha
Outline: as §2

[8] = system: crabgrass; assay: Test Example 3: weedkilling efficacy through soil treatment; D: crabgrass; conditions: treatment dosage 315 g/ha
Outline: (§3)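 Crop and weed responses were judged three weeks after a uniform surface spray of the water-diluted emulsion at the given g/ha rate. Seeds sat beneath about 1.5 cm of sterilized diluvial soil, and boxes stood in a greenhouse at 25 to 30° C.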

[9] = system: green foxtail; assay: Test Example 3: weedkilling efficacy through soil treatment; E: green foxtail; conditions: treatment dosage 315 g/ha
Outline: as §3

[10] = system: black-grass; assay: Test Example 3: weedkilling efficacy through soil treatment; H: black-grass; conditions: treatment dosage 315 g/ha
Outline: as §3

[11] = system: Italian ryegrass; assay: Test Example 3: weedkilling efficacy through soil treatment; I: Italian ryegrass; conditions: treatment dosage 315 g/ha
Outline: as §3

[12] = system: Indian mallow; assay: Test Example 3: weedkilling efficacy through soil treatment; K: Indian mallow; conditions: treatment dosage 315 g/ha
Outline: as §3

[13] = system: redroot pigweed; assay: Test Example 3: weedkilling efficacy through soil treatment; L: redroot pigweed; conditions: treatment dosage 315 g/ha
Outline: as §3

[14] = system: fig-leafed goosefoot; assay: Test Example 3: weedkilling efficacy through soil treatment; M: fig-leafed goosefoot; conditions: treatment dosage 315 g/ha
Outline: as §3

[15] = system: chickweed; assay: Test Example 3: weedkilling efficacy through soil treatment; N: chickweed; conditions: treatment dosage 315 g/ha
Outline: as §3

[16] = system: catchweed; assay: Test Example 3: weedkilling efficacy through soil treatment; O: catchweed; conditions: treatment dosage 315 g/ha
Source text: Weedkilling Efficacy Test Through Soil Treatment
Sterilized diluvial soil was introduced into 21 cm long, 13 cm wide, 7 cm deep plastic boxes, and seeds of crabgrass, green foxtail, barnyard grass, wild oat, black-grass, Italian ryegrass, common wind-grass, Indian mallow, redroot pigweed, fig-leafed goosefoot, chickweed, catchweed, birds-eye speedwell, corn, soybean, rice, wheat, beet and rapeseed were each spot-sown, and covered with about 1.5 cm of soil. Next, emulsions of compounds of the present invention prepared according to compounding example 2 were diluted with water to give the specified dosages, and applied uniformly onto the soil surface with a small sprayer. The plants were grown by placing the plastic boxes in a greenhouse at 25 to 30° C., and 3 weeks after the pesticide treatment the effect on each type of plant was investigated on the basis of the assessment criteria of test example 1.
A: barnyard grass, B: bulrush, C: oval-leafed pondweed, D: crabgrass, E: green foxtail, F: barnyard grass, G: wild oat, H: black-grass, I: Italian ryegrass, J: common wind-grass, K: Indian mallow, L: redroot pigweed, M: fig-leafed goosefoot, N: chickweed, O: catchweed, p: birds-eye speedwell, a: transplanted rice, b: directly sown rice, c: corn, d: soybean, e: wheat, f: beet, g: rapeseed
Further, pesticide dosage (g/ha) indicates the concentration regulated such that treatment was with only the stated number of grams (g), when calculated per hectare (ha).

[17] = system: birds-eye speedwell; assay: Test Example 3: weedkilling efficacy through soil treatment; p: birds-eye speedwell; conditions: treatment dosage 315 g/ha
Outline: as §3

[18] = system: directly sown rice; assay: Test Example 3: soil treatment, effect on crop; b: directly sown rice; conditions: treatment dosage 315 g/ha
Outline: as §3

[19] = system: corn; assay: Test Example 3: soil treatment, effect on crop; c: corn; conditions: treatment dosage 315 g/ha
Outline: as §3

[20] = system: soybean; assay: Test Example 3: soil treatment, effect on crop; d: soybean; conditions: treatment dosage 315 g/ha
Outline: as §3

[21] = system: wheat; assay: Test Example 3: soil treatment, effect on crop; e: wheat; conditions: treatment dosage 315 g/ha
Outline: as §3

[22] = system: beet; assay: Test Example 3: soil treatment, effect on crop; f: beet; conditions: treatment dosage 315 g/ha
Outline: as §3

[23] = system: crabgrass; assay: Test Example 4: weedkilling efficacy by foliar treatment; D: crabgrass; conditions: treatment dosage 315 g/ha
Outline: (§4)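 Seeds are spot-sown into sterilized diluvial soil and covered with about 1.5 cm of soil. After 14 days' greenhouse growth at 25 to 30° C, plants are sprayed on stems and leaves with diluted emulsion at the stated g/ha rate, then scored at 3 weeks.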

[24] = system: green foxtail; assay: Test Example 4: weedkilling efficacy by foliar treatment; E: green foxtail; conditions: treatment dosage 315 g/ha
Outline: as §4

[25] = system: black-grass; assay: Test Example 4: weedkilling efficacy by foliar treatment; H: black-grass; conditions: treatment dosage 315 g/ha
Outline: as §4

[26] = system: Italian ryegrass; assay: Test Example 4: weedkilling efficacy by foliar treatment; I: Italian ryegrass; conditions: treatment dosage 315 g/ha
Outline: as §4

[27] = system: Indian mallow; assay: Test Example 4: weedkilling efficacy by foliar treatment; K: Indian mallow; conditions: treatment dosage 315 g/ha
Outline: as §4

[28] = system: redroot pigweed; assay: Test Example 4: weedkilling efficacy by foliar treatment; L: redroot pigweed; conditions: treatment dosage 315 g/ha
Outline: as §4

[29] = system: fig-leafed goosefoot; assay: Test Example 4: weedkilling efficacy by foliar treatment; M: fig-leafed goosefoot; conditions: treatment dosage 315 g/ha
Outline: as §4

[30] = system: chickweed; assay: Test Example 4: weedkilling efficacy by foliar treatment; N: chickweed; conditions: treatment dosage 315 g/ha
Outline: as §4

[31] = system: catchweed; assay: Test Example 4: weedkilling efficacy by foliar treatment; O: catchweed; conditions: treatment dosage 315 g/ha
Outline: as §4

[32] = system: birds-eye speedwell; assay: Test Example 4: weedkilling efficacy by foliar treatment; p: birds-eye speedwell; conditions: treatment dosage 315 g/ha
Outline: as §4

[33] = system: directly sown rice; assay: Test Example 4: foliar treatment, effect on crop; b: directly sown rice; conditions: treatment dosage 315 g/ha
Outline: as §4

[34] = system: corn; assay: Test Example 4: foliar treatment, effect on crop; c: corn; conditions: treatment dosage 315 g/ha
Outline: as §4

[35] = system: soybean; assay: Test Example 4: foliar treatment, effect on crop; d: soybean; conditions: treatment dosage 315 g/ha
Outline: as §4

[36] = system: wheat; assay: Test Example 4: foliar treatment, effect on crop; e: wheat; conditions: treatment dosage 315 g/ha
Outline: as §4

[37] = system: beet; assay: Test Example 4: foliar treatment, effect on crop; f: beet; conditions: treatment dosage 315 g/ha
Outline: as §4

Row | Compound | A (barnyard grass) weedkilling efficacy grade [1] | B (bulrush) weedkilling efficacy grade [2] | C (oval-leafed pondweed) weedkilling efficacy grade [3] | a (transplanted rice) effect on crop grade [4] | A (barnyard grass) weedkilling efficacy grade [5] | B (bulrush) weedkilling efficacy grade [6] | C (oval-leafed pondweed) weedkilling efficacy grade [7] | D (crabgrass) weedkilling efficacy grade [8] | E (green foxtail) weedkilling efficacy grade [9] | H (black-grass) weedkilling efficacy grade [10] | I (Italian ryegrass) weedkilling efficacy grade [11] | K (Indian mallow) weedkilling efficacy grade [12] | L (redroot pigweed) weedkilling efficacy grade [13] | M (fig-leafed goosefoot) weedkilling efficacy grade [14] | N (chickweed) weedkilling efficacy grade [15] | O (catchweed) weedkilling efficacy grade [16] | P (birds-eye speedwell) weedkilling efficacy grade [17] | b (directly sown rice) effect on crop grade [18] | c (corn) effect on crop grade [19] | d (soybean) effect on crop grade [20] | other results
1 | CC1=C(c2ccccc2)C(=O)N(C(C)(C)C(=O)Nc2nc(C)ns2)CO1 [B-1-13] | 5 (weed kill ratio 90% or more, (practically complete withering)) | 5 (weed kill ratio 90% or more, (practically complete withering)) | 5 (weed kill ratio 90% or more, (practically complete withering)) | 0 (weed kill ratio 5% or less (practically no effect)) | 5 (weed kill ratio 90% or more, (practically complete withering)) | 5 (weed kill ratio 90% or more, (practically complete withering)) | 5 (weed kill ratio 90% or more, (practically complete withering)) | 5 (weed kill ratio 90% or more, (practically complete withering)) | 5 (weed kill ratio 90% or more, (practically complete withering)) | 5 (weed kill ratio 90% or more, (practically complete withering)) | 5 (weed kill ratio 90% or more, (practically complete withering)) | 2 (weed kill ratio 20% or more, less than 40%) | 4 (weed kill ratio 70% or more, less than 90%) | 4 (weed kill ratio 70% or more, less than 90%) | 4 (weed kill ratio 70% or more, less than 90%) | 5 (weed kill ratio 90% or more, (practically complete withering)) | 5 (weed kill ratio 90% or more, (practically complete withering)) | 5 (weed kill ratio 90% or more, (practically complete withering)) | 3 (weed kill ratio 40% or more, less than 70%) | 4 (weed kill ratio 70% or more, less than 90%) | e (wheat) effect on crop grade [21]: 5 (weed kill ratio 90% or more, (practically complete withering)); f (beet) effect on crop grade [22]: 5 (weed kill ratio 90% or more, (practically complete withering)); D (crabgrass) weedkilling efficacy grade [23]: 5 (weed kill ratio 90% or more, (practically complete withering)); E (green foxtail) weedkilling efficacy grade [24]: 5 (weed kill ratio 90% or more, (practically complete withering)); H (black-grass) weedkilling efficacy grade [25]: 5 (weed kill ratio 90% or more, (practically complete withering)); I (Italian ryegrass) weedkilling efficacy grade [26]: 5 (weed kill ratio 90% or more, (practically complete withering)); K (Indian mallow) weedkilling efficacy grade [27]: 5 (weed kill ratio 90% or more, (practically complete withering)); L (redroot pigweed) weedkilling efficacy grade [28]: 5 (weed kill ratio 90% or more, (practically complete withering)); M (fig-leafed goosefoot) weedkilling efficacy grade [29]: 4 (weed kill ratio 70% or more, less than 90%); N (chickweed) weedkilling efficacy grade [30]: 4 (weed kill ratio 70% or more, less than 90%); O (catchweed) weedkilling efficacy grade [31]: 5 (weed kill ratio 90% or more, (practically complete withering)); P (birds-eye speedwell) weedkilling efficacy grade [32]: 4 (weed kill ratio 70% or more, less than 90%); b (directly sown rice) effect on crop grade [33]: 5 (weed kill ratio 90% or more, (practically complete withering)); c (corn) effect on crop grade [34]: 2 (weed kill ratio 20% or more, less than 40%); d (soybean) effect on crop grade [35]: 5 (weed kill ratio 90% or more, (practically complete withering)); e (wheat) effect on crop grade [36]: 4 (weed kill ratio 70% or more, less than 90%); f (beet) effect on crop grade [37]: 3 (weed kill ratio 40% or more, less than 70%)
2 | CCc1nsc(NC(=O)C(C)(C)N2COC(C)=C(c3ccccc3)C2=O)n1 [B-1-14] | 5 (weed kill ratio 90% or more, (practically complete withering)) | 5 (weed kill ratio 90% or more, (practically complete withering)) | 5 (weed kill ratio 90% or more, (practically complete withering)) | 1 (weed kill ratio 5% or more, less than 20%) | 5 (weed kill ratio 90% or more, (practically complete withering)) | 5 (weed kill ratio 90% or more, (practically complete withering)) | 5 (weed kill ratio 90% or more, (practically complete withering)) | 5 (weed kill ratio 90% or more, (practically complete withering)) | 5 (weed kill ratio 90% or more, (practically complete withering)) | 5 (weed kill ratio 90% or more, (practically complete withering)) | 5 (weed kill ratio 90% or more, (practically complete withering)) | 3 (weed kill ratio 40% or more, less than 70%) | 5 (weed kill ratio 90% or more, (practically complete withering)) | 5 (weed kill ratio 90% or more, (practically complete withering)) | 4 (weed kill ratio 70% or more, less than 90%) | 5 (weed kill ratio 90% or more, (practically complete withering)) | 5 (weed kill ratio 90% or more, (practically complete withering)) | 5 (weed kill ratio 90% or more, (practically complete withering)) | 0 (weed kill ratio 5% or less (practically no effect)) | 3 (weed kill ratio 40% or more, less than 70%) | e (wheat) effect on crop grade [21]: 5 (weed kill ratio 90% or more, (practically complete withering)); f (beet) effect on crop grade [22]: 5 (weed kill ratio 90% or more, (practically complete withering)); D (crabgrass) weedkilling efficacy grade [23]: 5 (weed kill ratio 90% or more, (practically complete withering)); E (green foxtail) weedkilling efficacy grade [24]: 5 (weed kill ratio 90% or more, (practically complete withering)); H (black-grass) weedkilling efficacy grade [25]: 5 (weed kill ratio 90% or more, (practically complete withering)); I (Italian ryegrass) weedkilling efficacy grade [26]: 5 (weed kill ratio 90% or more, (practically complete withering)); K (Indian mallow) weedkilling efficacy grade [27]: 5 (weed kill ratio 90% or more, (practically complete withering)); L (redroot pigweed) weedkilling efficacy grade [28]: 5 (weed kill ratio 90% or more, (practically complete withering)); M (fig-leafed goosefoot) weedkilling efficacy grade [29]: 4 (weed kill ratio 70% or more, less than 90%); N (chickweed) weedkilling efficacy grade [30]: 4 (weed kill ratio 70% or more, less than 90%); O (catchweed) weedkilling efficacy grade [31]: 4 (weed kill ratio 70% or more, less than 90%); P (birds-eye speedwell) weedkilling efficacy grade [32]: 4 (weed kill ratio 70% or more, less than 90%); b (directly sown rice) effect on crop grade [33]: 4 (weed kill ratio 70% or more, less than 90%); c (corn) effect on crop grade [34]: 3 (weed kill ratio 40% or more, less than 70%); d (soybean) effect on crop grade [35]: 4 (weed kill ratio 70% or more, less than 90%); e (wheat) effect on crop grade [36]: 4 (weed kill ratio 70% or more, less than 90%); f (beet) effect on crop grade [37]: 5 (weed kill ratio 90% or more, (practically complete withering))
